Measured values published in patent US20230091960A1, “CULTURE MEDIUM FOR PRIMARY CELLS OF ESOPHAGEAL SQUAMOUS CARCINOMA, AND CULTIVATION METHOD THEREFOR” (PRECEDO PHARMACEUTICALS CO., LTD, priority 2020, published 2023).

Columns and labels:
Type in all cases: cell-based, human
[1] = test system: primary cells of esophageal squamous carcinoma; assay: Effect of a single factor added to the basic culture medium on proliferation (Example 2); settings: Sample 57, 7th day; BM = DMEM/F12 + 10 μM Y27632 + 100 mg/mL Primocin; factor at its No. 7 medium concentration
Experimental: To the basic culture mediums of Example 1 (DMEM/F12 medium+10 μM Y27632+100 mg/mL Primocin) were separatedly added 1:50 ratio of N2 additive, 20 μg/mL insulin, 7 μg/mL bovine pituitary extract, 2 mM glutamine, 400 μM non-essential amino acids, 0.4 μg/mL hydrocortisone, 5 ng/mL insulin-like growth factor 1, respectively, to prepare the culture mediums of this Example. According to the same process as in Example 1, endoscopic tissue Sample 57, Sample 58, Sample 59, Sample 60 and Sample 61 were isolated to obtain primary cells of esophageal squamous carcinoma, and the obtained primary cells of esophageal squamous carcinoma were cultured by using the respective culture mediums prepared in this Example, as well as BM medium and No. 7 medium (EM) of Example 1. The resultants were inoculated into 48-well plate at a living cell density of 1×10^4/cm^2 (10,000 cells per well), and then the plate was added with NIH-3T3 cells that have been irradiated by γ-ray (irradiation dose 35Gy) at a cell density of 2×10^4/cm^2, which were then fully mixed. After surface disinfection, the plate was placed in a 37° C., 5% CO2 incubator (Thermo Fisher) for culture. On the 7th day of culture, the 48-well plate was taken out, rinsed with 200 μL 0.25% trypsin (Gibco) for 1 minute. The liquid was removed by sucking, and 500 μL 0.05% trypsin (Gibco) was added to each well again. The resultant was placed in a 37° C., 5% CO2 incubator to react for 10 minutes, and the digestion can be terminated until it can be observed under the microscope (EVOS […], Invitrogen) that the cells have been completely digested. After being centrifuged at 1500 rpm for 4 minutes, the supernatant was discarded, and 1 mL of basic culture medium was added for resuspension. The total number of cells was obtained by counting with a flow imaging counter (JIMBIO FIL, Jiangsu Jimbio Technology Co., Ltd.). The effect of combination of two factors in the culture medium for primary cells of esophageal squamous carcinoma on the proliferation of primary cells of esophageal squamous carcinoma was evaluated. The results obtained from primary cells of esophageal squamous carcinoma isolated from endoscopic tissue Sample 57 are shown in FIG. 2.

[2] = test system: primary cells of esophageal squamous carcinoma; assay: Effects of concentrations of the added factors or small molecule compounds on proliferation (Example 7); settings: for concentration at which the cell proliferation effect is most significant: added to No. 7 medium lacking this factor; for proliferation promoting effect when added to No. 7 medium: 10 μM, 3 μM, 1 μM, 0.3 μM, 0.1 μM, control No. 7 medium
Experimental: According to the same process as in Example 1, endoscopic tissue Sample 65, Sample 66, Sample 67, Sample 68 and Sample 69 were isolated to obtain primary cells of esophageal squamous carcinoma, and the obtained primary cells of esophageal squamous carcinoma were cultured by using No. 7 medium of Example 1. The resultants were inoculated into 12-well plate at a living cell density of 1×10^4/cm^2 (45,000 cells per well), and then the plate was added with NIH-3T3 cells that have been irradiated by γ-ray (irradiation dose 35Gy) at a cell density of 2×10^4/cm^2, which were then fully mixed. After surface disinfection, the plate was placed in a 37° C., 5% CO2 incubator (Thermo Fisher) for culture. When the cells expended to cover 85% of the plate, the 12-well plate was taken out, rinsed with 200 μL 0.25% trypsin (Gibco) for 1 minute. The liquid was removed by sucking, and 500 μL 0.05% trypsin (Gibco) was added to each well again. The resultant was placed in a 37° C., 5% CO2 incubator to react for 10 minutes, and the digestion can be terminated until it can be observed under the microscope (EVOS […], Invitrogen) that the cells have been completely digested. After being centrifuged at 1500 rpm for 4 minutes, the supernatant was discarded, and 1 mL of basic culture medium was added for resuspension. The total number of cells was obtained by counting with a flow imaging counter (JIMBIO FIL, Jiangsu Jimbio Technology Co., Ltd.). The obtained cells were used for the following cultivation experiments. The digested cell suspension was diluted with the above Formulations 1-8 and No. 7 medium in Example 1 respectively, and were seeded into a 24-well plate with 20,000 cells and 500 μL volume per well. When using the medium of Formulation 1, five concentration gradients of N2 additives with the final concentration of 1:400, 1:200, 1:100, 1:50 and 1:25 were prepared, respectively, and the prepared N2 additives were added respectively to a 24-well plate inoculated with primary cells, with 500 μL per well; the medium of Formulation 1 was used as the control hole (BC). When using the medium of Formulation 2, five concentration gradients of non-essential amino acids with the final concentration of 400 μM, 200 μM, 100 μM, 50 μM, 25 μM were prepared, respectively, and the prepared non-essential amino acids were added respectively to a 24-well plate inoculated with primary cells, with 500 μL per well; the medium of Formulation 2 was used as the control hole (BC). When using the medium of Formulation 3, five concentration gradients of glutamine with the final concentration of 8 mM, 4 mM, 2 mM, 1 mM, 0.5 mM were prepared, respectively, and the prepared glutamine were added respectively to a 24-well plate inoculated with primary cells, with 500 μL per well; the medium of Formulation 3 was used as the control hole (BC). When using the medium of Formulation 4, five concentration gradients of insulin with the final concentration of 40 μg/mL, 20 μg/mL, 10 μg/mL, 5 μg/mL, 2.5 μg/mL were prepared, respectively, and the prepared insulin were added respectively to a 24-well plate inoculated with primary cells, with 500 μL per well; the medium of Formulation 4 was used as the control hole (BC). When using the medium of Formulation 5, five concentration gradients of insulin-like growth factor 1 (IGF1) with the final concentration of 40 ng/mL, 20 ng/mL, 10 ng/mL, 5 ng/mL, 2.5 ng/mL were prepared, respectively, and the prepared insulin-like growth factor 1 (IGF1) were added respectively to a 24-well plate inoculated with primary cells, with 500 μL per well; the medium of Formulation 5 was used as the control hole (BC). […]

[3] = test system: primary cells of esophageal squamous carcinoma; assay: Effect of adding other factors to EM medium on proliferation (Example 3); settings: Sample 62, 10 ng/ml factor added to No. 7 medium (EM), cultured for 7 days
Experimental: To No. 7 mediums (EM) of Example 1 were separately added 10 ng/ml fibroblast growth factor 2 (FGF2), 10 ng/ml fibroblast growth factor 10 (FGF10), 10 ng/ml fibroblast growth factor 7 (FGF7) or the combination of 10 ng/ml FGF2, 10 ng/ml FGF10 and 10 ng/ml FGF7, respectively, to prepare the mediums of this Example.
According to the same process as in Example 1, endoscopic tissue Sample 62 and Sample 63 were isolated to obtain primary cells of esophageal squamous carcinoma, and the obtained primary cells of esophageal squamous carcinoma were cultured by using the respective culture mediums prepared in this Example, as well as No. 7 medium (EM) of Example 1. The resultants were inoculated into 48-well plate with at a cell density of 1×10^4/cm^2 (10,000 cells per well), and then the plate was added with NIH-3T3 cells that have been irradiated by γ-ray (irradiation dose 35Gy) at a cell density of 2×10^4/cm^2, which were then fully mixed. After surface disinfection, the plate was placed in a 37° C., 5% CO2 incubator (Thermo Fisher) for culture. On the 7th day of culture, the 48-well plate was taken out, rinsed with 200 μL 0.25% trypsin (Gibco) for 1 minute. The liquid was removed by sucking, and 500 μL 0.05% trypsin (Gibco) was added to each well again. The resultant was placed in a 37° C., 5% CO2 incubator to react for 10 minutes, and the digestion can be terminated until it can be observed under the microscope (EVOS M500, Invitrogen) that the cells have been completely digested. After being centrifuged at 1500 rpm for 4 minutes, the supernatant was discarded, and 1 mL of No. 7 medium (EM) was added for resuspension. The total number of cells was obtained by counting with a flow imaging counter (JIMBIO FIL, Jiangsu Jimbio Technology Co., Ltd.). The effect of adding other factors to the culture medium for primary cells of esophageal squamous carcinoma of the invention on the proliferation of primary cells of esophageal squamous carcinoma was evaluated. […]

How did the “cell proliferation efficiency when one factor is added to the basic culture medium” value (“cell proliferation efficiency” for short) [1] turn out when “insulin-like growth factor 1: insulin-like growth factor 1 (IGF-1, Sino Biological)” was run?
Its value is “better than that of the basic culture medium, but was not as good as that of the No. 7 medium (EM)”.

What about the “concentration at which the cell proliferation effect is most significant” value ([2]; five concentration gradients) of the same molecule?
Its value is 5 ng/mL.

`NC(=O)c1ccc(-c2nc(-c3ccc4c(c3)OCO4)c(-c3ccccn3)[nH]2)cc1` [SB431542] was tested. Which “proliferation promoting effect when added to No. 7 medium” value [2] did it give?
The value was “do not show significant proliferation promoting effect”.

Which “cell proliferation efficiency” value [1] does the source give for `NC(=O)CC[C@H](N)C(=O)O` [glutamine] here?
The value was “better than that of the basic culture medium, but was not as good as that of the No. 7 medium (EM)”.

What about the “concentration at which the cell proliferation effect is most significant” value ([2]; tested 0.5-8 mM) of the same molecule?
The value was 2 mM.

How did the “cell proliferation efficiency” value [1] turn out when insulin was run?
The value was “better than that of the basic culture medium, but was not as good as that of the No. 7 medium (EM)”.

What about the “concentration at which the cell proliferation effect is most significant” value ([2]; five concentration gradients) of the same molecule?
The value was 20 ng/mL.

How did the “proliferation promoting effect when added to No. 7 medium” value [2] turn out when `Cc1ccc2nc(NC(=O)CSc3nc4c(c(=O)n3-c3ccccc3)SCC4)sc2c1` [IWP2] was run?
Its value is “do not show significant proliferation promoting effect”.

Which “proliferation promoting effect when added to No. 7 medium” value [2] does the source give for `CC(C)Oc1ccc(-c2cnc3c(-c4ccnc5ccccc45)cnn3c2)cc1` [DMH-1] here?
Its value is “do not show significant proliferation promoting effect”.

With `c1ccc2c(-c3cnn4cc(-c5ccc(N6CCNCC6)cc5)cnc34)ccnc2c1` [LDN193189] as the molecule, how does the “proliferation promoting effect when added to No. 7 medium” value [2] read?
Its value is “do not show significant proliferation promoting effect”.

With `C[C@H](NC(=O)Cc1cc(F)cc(F)c1)C(=O)N[C@H](C(=O)OC(C)(C)C)c1ccccc1` [DAPT] as the molecule, how does the “proliferation promoting effect when added to No. 7 medium” value [2] read?
Its value is “do not show significant proliferation promoting effect”.

Which “cell proliferation efficiency” value [1] does the source give for `C[C@]12CCC(=O)C=C1CC[C@@H]1[C@@H]2[C@@H](O)C[C@@]2(C)[C@H]1CC[C@]2(O)C(=O)CO` [hydrocortisone] here?
The value was “better than that of the basic culture medium, but was not as good as that of the No. 7 medium (EM)”.

What about the “concentration at which the cell proliferation effect is most significant” value ([2]; five concentration gradients) of the same molecule?
The value was 400 ng/mL.

For `C[C@@H](N)[C@H]1CC[C@H](C(=O)Nc2ccncc2)CC1` [Y27632], which “concentration at which the cell proliferation effect is most significant” value ([2]; five concentration gradients) is on record?
Its value is 0.01 mM.

How did the “proliferation promoting effect when added to No. 7 medium” value [2] turn out when `Cc1cccc(-c2nn(C(=S)Nc3ccccc3)cc2-c2ccnc3ccccc23)n1` [A83-01] was run?
The value was “do not show significant proliferation promoting effect”.

How did the “proliferation promoting effect when added to No. 7 medium” value [2] turn out when `Cc1c[nH]c(-c2cnc(NCCNc3ccc(C#N)cn3)nc2-c2ccc(Cl)cc2Cl)n1` [CHIR99021] was run?
Its value is “do not show significant proliferation promoting effect”.

How did the “effect on proliferation as compared with EM medium (ratio of cell numbers)” value (from here on “effect … (ratio of cell numbers)”) [3] turn out when FGF2: fibroblast growth factor 2 was run?
Its value is “no significant effect for promoting proliferation”.

B1: FGF7: fibroblast growth factor 7 (protein, UniProt P21781 32-194, looked up)
Fibroblast growth factor 7: CNDMTPEQMATNVNCSSPERHTRSYDYMEGGDIRVRRLFCRTQWYLRIDKRGKVKGTQEMKNNYNIMEIRTVAVGIVAIKGVESEFYLAMNKEGKLYAKKECNEDCNFKELILENHYNTYASAKWTHNGGEMFVALNQKGIPVRGKKTKKEQKTAHFLPMAIT
For B1, which “effect … (ratio of cell numbers)” value [3] is on record?
The value was “inhibited”.

B2: FGF10: fibroblast growth factor 10 (protein, UniProt O15520 38-208, looked up)
Fibroblast growth factor 10: QALGQDMVSPEATNSSSSSFSSPSSAGRHVRSYNHLQGDVRWRKLFSFTKYFLKIEKNGKVSGTKKENCPYSILEITSVEIGVVAVKAINSNYYLAMNKKGKLYGSKEFNNDCKLKERIEENGYNTYASFNWQHNGRQMYVALNGKGAPRRGQKTRRKNTSAHFLPMVVHS
B2 was tested. Which “effect … (ratio of cell numbers)” value [3] did it give?
The value was “no significant effect for promoting proliferation”.
